Assay results taken from US20230078764A1 (Yumanity Therapeutics, Inc., priority 2019, published 2023).
pIC50: −log10 of the molar value.

Experiments:
human SCD1 = target: T1, human SCD1 (Homo sapiens, UniProt O00767); test: Growth inhibition of yeast strain expressing human SCD1 as sole desaturase (OLE1 deleted), OD600 readout; format: cell-based; conditions: yeast strain expressing human SCD1 as sole desaturase; growth (OD600) after 40 h at 30° C.; read-out: SCD1 IC50
T1 construct: expressed in transfected cells; host or cells: yeast strain with OLE1 deleted, plasmid-borne human SCD1 (selected in SD-Ura)
T1 sequence (O00767 1-359): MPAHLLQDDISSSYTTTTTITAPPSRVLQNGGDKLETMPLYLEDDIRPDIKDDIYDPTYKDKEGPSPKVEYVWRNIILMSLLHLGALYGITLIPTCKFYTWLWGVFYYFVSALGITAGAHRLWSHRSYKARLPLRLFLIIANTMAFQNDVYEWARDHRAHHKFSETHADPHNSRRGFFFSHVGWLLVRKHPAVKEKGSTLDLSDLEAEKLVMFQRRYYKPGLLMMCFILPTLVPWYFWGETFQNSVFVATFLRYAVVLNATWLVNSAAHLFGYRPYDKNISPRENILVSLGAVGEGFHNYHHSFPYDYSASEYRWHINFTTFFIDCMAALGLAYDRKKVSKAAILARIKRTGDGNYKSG

human SCD5 = target: T2, human SCD5 (Homo sapiens, UniProt Q86SK9); test: Growth inhibition of yeast strain expressing human SCD5 as sole desaturase (OLE1 deleted), OD600 readout; format: cell-based; conditions: yeast strain expressing human SCD5 as sole desaturase; growth (OD600) after 40 h at 30° C.; read-out: SCD5 IC50
T2 construct: expressed in transfected cells; host or cells: yeast strain with OLE1 deleted, plasmid-borne human SCD5 (selected in SD-Ura)
T2 sequence (Q86SK9 1-330): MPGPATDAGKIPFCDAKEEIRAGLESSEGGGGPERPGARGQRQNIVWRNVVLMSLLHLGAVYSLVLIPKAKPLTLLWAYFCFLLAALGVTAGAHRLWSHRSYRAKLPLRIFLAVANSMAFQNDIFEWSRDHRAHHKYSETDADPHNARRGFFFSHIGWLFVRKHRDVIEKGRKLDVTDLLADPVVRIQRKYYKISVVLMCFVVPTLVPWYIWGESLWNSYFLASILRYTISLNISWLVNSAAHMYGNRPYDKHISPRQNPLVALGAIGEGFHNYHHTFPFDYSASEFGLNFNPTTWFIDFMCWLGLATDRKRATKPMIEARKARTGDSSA

Row | SMILES | pIC50 (human SCD1) | pIC50 (human SCD5)
1 | Cn1cc(NC(=O)c2ccc(COc3ccccc3)cn2)ccc1=O [Compound 569] | < 4.35 | 5.92
2 | Cn1cc(C(=O)Nc2ccc(Nc3cccc(Cl)c3)cn2)ccc1=O [Compound 342] | < 4.35 | 4.68
3 | CN1N=C(C(=O)Nc2ccc(Cc3cccc(C4CC4)c3)cn2)CCC1=O [Example 23, N-(5-(3-cyclopropylbenzyl)pyridin-2-yl)-1-methyl-6-oxo-1,4,5,6-tetrahydropyridazine-3-carboxamide] | < 4.35 | 5.60
4 | Cn1cc(C(=O)Nc2nnc(Cc3ccc(F)cc3)s2)ccc1=O [Compound 473] | < 4.35 | < 4.35
5 | CN1N=C(CNc2ccc(Cc3cccc(F)c3)cn2)CCC1=O [Compound 397] | < 4.35 | < 4.35
6 | CN1N=C(C(=O)Nc2ncc(C(C)(O)c3cccc(F)c3)s2)CCC1=O (stereo not shown) [Compound 419] | < 4.35 | < 4.35
7 | Cn1nc(C(=O)Nc2ncc(Cc3ccc(F)c(F)c3)cc2F)ccc1=O [Compound 577] | 4.64 | 5.19
8 | CN1N=C(C(=O)Nc2ccc(COC3(C)CC3)cn2)CCC1=O [Compound 396] | < 4.35 | < 4.35
9 | CCn1nc(C(=O)Nc2ccc(Cc3cc(F)cc(C#N)c3)cn2)ccc1=O [Compound 69, N-(5-(3-cyano-5-fluorobenzyl)pyridin-2-yl)-1-ethyl-6-oxo-1,6-dihydropyridazine-3-carboxamide] | < 4.35 | 6.57
10 | CN1N=C(C(=O)Nc2ccc(COc3ccc(F)c(Cl)c3)cn2)CCC1=O [Compound 265] | 4.63 | 6.46
11 | O=C(NNC(=O)C(F)(F)F)C(=O)Nc1ccc(Cc2cccc(Cl)c2)cn1 [Compound 682] | 7.00 | 6.70
12 | CCn1ccc(C(=O)Nc2ccc(Cc3ccc(F)cc3)cn2)n1 [Compound 102, 1-ethyl-N-(5-(4-fluorobenzyl)pyridin-2-yl)-1H-pyrazole-3-carboxamide] | 4.99 | 7.10
13 | Cn1nc(C(=O)Nc2nc(C#N)c(Cc3cccc(F)c3)s2)ccc1=O [Compound 233, N-(4-cyano-5-(3-fluorobenzyl)thiazol-2-yl)-1-methyl-6-oxo-1,6-dihydropyridazine-3-carboxamide] | 5.79 | 6.06
14 | CN1N=C(C(=O)Oc2ccc(NCc3cccc(Br)c3)nc2)CCC1=O [Compound 268] | < 4.35 | 5.52
15 | CN1CC(C(=O)Nc2ncc(Cc3cccc(F)c3)s2)CC1=O (stereo not shown) [Compound 377] | < 4.35 | < 4.35
16 | CN1N=C(C(=O)Nc2ccc(Cc3cccc(Cl)c3)cn2)CC1=O [Compound 105, N-(5-(3-chlorobenzyl)pyridin-2-yl)-1-methyl-5-oxo-4,5-dihydro-1H-pyrazole-3-carboxamide] | < 4.35 | 6.08

Row | SMILES | pIC50 (human SCD1) | pIC50 (human SCD5)
17 | Cn1cc(C(=O)Nc2ccc(Oc3cc(F)cc(F)c3)cn2)ccc1=O [Compound 588] | 5.21 | 6.28
18 | CNC(=O)c1ccnc(NC(=O)c2ccc(Oc3ccccc3Cl)cn2)c1 [Compound 678] | 6.49 | 6.42
19 | Cn1cc(NC(=O)N2CCC(Cc3cccc(Cl)c3)CC2)ccc1=O [Compound 308] | 4.64 | 5.51
20 | Cn1nc(C(=O)Nc2nnc(Cc3cc(F)cc(Cl)c3)s2)ccc1=O [Compound 346] | 6.47 | 6.26
21 | CN1N=C(C(=O)Nc2ncc(Cc3ccc(F)cc3)s2)CCC1=O [Compound 208, N-(5-(4-fluorobenzyl)thiazol-2-yl)-1-methyl-6-oxo-1,4,5,6-tetrahydropyridazine-3-carboxamide] | 6.89 | 7.30
22 | CN1N=C(C(=O)Nc2ccc(Cc3ccccc3)nn2)CCC1=O [Compound 186, N-(6-benzylpyridazin-3-yl)-1-methyl-6-oxo-1,4,5,6-tetrahydropyridazine-3-carboxamide] | < 4.35 | 4.90
23 | CN1N=C(C(=O)Nc2ncc(Cc3ccc(C#N)cc3)s2)CCC1=O [Compound 341] | < 4.35 | 5.57
24 | Cn1cc(C(=O)N[C@H]2CC[C@H](Cc3cccc(Cl)c3)CC2)ccc1=O [Compound 336] | < 4.35 | 5.37
25 | CC1CC(C(=O)Nc2ccc(Cc3cccc(F)c3)cn2)=NN(C)C1=O (stereo not shown) [Compound 118, N-(5-(3-fluorobenzyl)pyridin-2-yl)-1,5-dimethyl-6-oxo-1,4,5,6-tetrahydropyridazine-3-carboxamide] | < 4.35 | 6.36
26 | CN1N=C(C(=O)Nc2ccc(Cc3cccc(C(F)(F)F)c3)cn2)CCC1=O [Example 18, 1-methyl-6-oxo-N-(5-(3-(trifluoromethyl)benzyl)pyridin-2-yl)-1,4,5,6-tetrahydropyridazine-3-carboxamide] | 5.07 | 5.80
27 | Cn1nc(C(=O)Nc2ccc(CNc3cccc(Cl)c3)cn2)ccc1=O [Compound 174, N-(5-((3-Chlorophenylamino)methyl)pyridin-2-yl)-1-methyl-6-oxo-1,6-dihydropyridazine-3-carboxamide] | 5.12 | 7.10
28 | CN1N=C(C(=O)Nc2ncc(Cc3cccnc3)s2)CCC1=O [Compound 398] | < 4.35 | < 4.35
29 | CN1N=C(C(=O)Nc2ccc(Cc3cccc(F)c3)s2)CCC1=O [Compound 343] | 5.50 | 5.47
30 | Cn1nc(NC(=O)N2CCC(Cc3cccc(Cl)c3)CC2)ccc1=O [Compound 309] | 6.27 | 7.30
31 | Cn1cc(C(=O)Nc2ccc(Cc3c(F)cccc3F)cn2)ccc1=O [Compound 566] | < 4.35 | 5.25

Further lines, results first:

Row | pIC50 (human SCD1) | pIC50 (human SCD5) | SMILES
32 | 6.96 | 8.00 | Cn1nc(NC(=O)c2ccc(Cc3cccc(Cl)c3)cn2)ccc1=O [Compound 89, 5-(3-Chlorobenzyl)-N-(1-methyl-6-oxo-1,6-dihydropyridazin-3-yl)picolinamide]
33 | 5.09 | 5.41 | N#Cc1nc(C(=O)Nc2ccc(Cc3cc(F)cc(F)c3)cn2)co1 [Compound 683]
34 | < 4.35 | 7.10 | N#Cc1cc(Cl)cc(Cc2ccc(NC(=O)c3cnc(C#N)cn3)nc2)c1 [Compound 677]
35 | 6.01 | 5.92 | CC(=O)c1ccc(C(=O)Nc2ccc(Cc3ccc(F)c(F)c3)cn2)nc1 [Compound 507]
36 | < 4.35 | < 4.35 | O=C(Nc1ccc(Cc2cccc(F)c2)cn1)c1ccc(F)c(Cl)n1 [Compound 417]
37 | 7.31 | 7.22 | CC(O)c1ccc(C(=O)Nc2ccc(Cc3cccc(Cl)c3)cn2)nn1 (stereo not shown) [Compound 512]
38 | < 4.35 | < 4.35 | COc1ccc(Cn2c(C(=O)Nc3ccc(Cc4cccc(Cl)c4)cn3)cc(=O)n2C)cc1 [Compound 456]
39 | < 4.35 | 6.41 | CN1N=C(C(=O)Nc2ccc(Cc3cccc(Br)c3)cn2)CCC1=O [Example 27, N-(5-(3-bromobenzyl)pyridin-2-yl)-1-methyl-6-oxo-1,4,5,6-tetrahydropyridazine-3-carboxamide]
40 | 7.22 | 8.00 | Cn1nc(CO)cc1C(=O)Nc1ccc(Cc2cccc(F)c2)cn1 [Compound 540]
41 | 5.71 | 7.70 | CN1N=C(C(=O)Nc2ccc(Cc3cc(F)cc(Cl)c3)cn2)CCC1=O [Example 28, N-(5-(3-chloro-5-fluorobenzyl)pyridin-2-yl)-1-methyl-6-oxo-1,4,5,6-tetrahydropyridazine-3-carboxamide]
42 | < 4.35 | 6.03 | Cn1nc(C(=O)Nc2ccc(COc3ccc(F)cc3)cn2)ccc1=O [Compound 599]
43 | 5.59 | 7.15 | COc1cc(Cc2ccc(NC(=O)c3ccc(=O)n(C)n3)nc2)ccc1F [Compound 597]
44 | 5.49 | 5.06 | O=C(O)c1cnc(C(=O)Nc2ccc(Cc3ccc(F)c(F)c3)cn2)cn1 [Compound 554]
45 | < 4.35 | 6.00 | Cn1cc(C(=O)Nc2ccc(Cc3cc(C#N)ccc3F)cn2)ccc1=O [Compound 648]
46 | 5.72 | 7.25 | N#Cc1cnc(C(=O)Nc2ccc(Cc3ccc(F)c(C#N)c3)cn2)cn1 [Compound 654]
47 | < 4.35 | 5.49 | O=C(Nc1ccc(Cc2cccc(Cl)c2)cn1)c1ccc(=O)n(C2COC2)c1 [Compound 273]
48 | 8.00 | 8.00 | O=C(Nc1ccc(CC2CCCCC2)cn1)c1ccc(CO)cn1 [Compound 321]
49 | 6.28 | 8.00 | Cn1nc(C(=O)Nc2ccc(Cc3ccc(F)c(F)c3Cl)cn2)ccc1=O [Compound 571]
50 | < 4.35 | 5.89 | O=C(Nc1ccc(Cc2cccc(F)c2)cn1)c1cc2ncnc(Cl)c2s1 [Compound 527]
